Assay results published in patent US4855304A, “Dinucleoside pyrophosphates and pyrophosphate homologs as plant antivirals” (Repligen Corporation, priority 1985, dated 1989).
Read-outs that look alike come from different tables or passages of the source.

Tests used:
[1] = tested on: TMV (tobacco mosaic virus) replication in intact N. glutinosa plants; test: Antiviral activity in N. glutinosa intact plants, infectivity test (local lesions); format: in vivo, tobacco mosaic virus; Nicotiana glutinosa
Protocol: (§1) Nicotiana glutinosa and N. tabacum var. samsum plants were grown in potting medium in greenhouse conditions (25±3° C., and constant illumination). The plants were fertilized with a commercial fertilizer every two weeks. Plants were used at 5-8 leaf stage (Devash, Y., Biggs, S. and Sela, I. [1982] Science 216: 1415-1416; Devash, Y. et al. [1984] Jour. Biol. Chem. 259: 3482-3486).
The ability of the antiviral dinucleotides to inhibit TMV replication in intact N. glutinosa plants (containing N-gene for TMV localization) was determined by infectivity tests. Solutions containing 5 μg/ml TMV, 0.1 μg/ml carborundum, and antiviral dinucleotide were applied to 5 half-leaves of N. glutinosa. The opposite half-leaves served as controls and were inoculated with infecting solution containing TMV and carborundum but no dinucleotides. The infection was allowed to proceed 48 hr. Inhibition of TMV replication was calculated as the percent of local lesions produced in antiviral compound treated half-leaves, as compared to control half-leaves.

[2] = tested on: TMV (tobacco mosaic virus) replication in TMV-infected tobacco leaf discs; test: Antiviral activity in TMV-infected leaf discs (TMV content by ELISA); format: cell-based, tobacco mosaic virus; leaf discs of N. tabacum var. samsun; parameters: key to TMV content: N.I.: no inhibition; conditions: for inhibition at 0.1 µM / inhibition at 0.2 µM: Tobacco mosaic virus, read-out: percent inhibition as related to control
Protocol: Assays for antiviral activity in TMV-infected leaf discs were done using leaves of N. tabacum var. samsun in which TMV is systemically spread. Leaves were mechanically inoculated with purified TMV (5 μg/ml in 0.01M sodium phosphate buffer, pH 7.6, containing 0.1 g/ml of carborundum as an abrasive). Immediately after infection, leaf discs (6.5 mm diameter) were punched out of the inoculated leaves and placed in a beaker containing 0.01M sodium phosphate, pH 7.6.
selected at random from this common pool and placed onto separate petri dishes, each containing 18 ml of 10 mM 4-(2-hydroxyethyl)-1-piperazine ethanesulfonic acid (HEPES)-KOH, pH 7.05, 188 mg/L Na2 HPO4 --7H2 O. […] At the end of the 1 hr incubation, the buffer containing the antiviral dinucleotide was replaced by a buffer lacking the antiviral dinucleotide for another hr. The discs were then washed with 0.01M sodium phosphate, pH 7.6, and were allowed to incubate for an additional 72 hr in phosphate buffer (Devash, Y., Biggs, S. and Sela, I. [1982] Science 216: 1415-1416; Devash, Y. et al. [1984] J. Biol. Chem. 259: 3482-3486). The discs were homogenized in 0.01M sodiuM phosphate buffer, pH 7.6, and the TMV content was determined by enzyme-linked immunosorbent assay (ELISA) as described below.
(§2) The TMV content of the homogenates was determined by ELISA essentially by the method of Clark and Adams ([1977] J. Gen. Virol. 34: 475-483) but with the following order of layers on the microtiter plates.
(§3) (a) the γ-globulin fraction of a serum obtained from a chicken immunized against TMV was absorbed directly to the plate.
(§4) (b) The next layer was the tested sample (at various dilutions) or a series of purified TMV suspensions at known concentrations (calibration curve).
(§5) (c) The third layer was the γ-globulin from the serum of a TMV-immunized rabbit.
(§6) (d) The final layer was goat antibody to rabbit immunoglobulin G conjugated with alkaline phosphatase (Sigma). The release of phosphate from p-nitrophenyl phosphate due to the antibody-conjugated alkaline phosphatase was monitored spectrophotometrically with a Microplate reader (Dynatech Diagnostics, Inc. South Windham, ME) and was proportional to TMV concentration in a log linear manner for about two logs (<2 ng to>200 ng). (Devash, Y., Biggs, S. and Sela, I. [1982] Science 216: 1415-1416)
The γ-globulin fraction of serum obtained from chickens and rabbits immunized against TMV were generous gifts from Professor Ilan Sela, The Hebrew University of Jerusalem, Agriculture Faculty, Rehobot, Israel.

[3] = tested on: TMV (tobacco mosaic virus) in N. tabacum plants; test: Root application to N. tabacum intact plants (TMV content by ELISA); format: in vivo, tobacco mosaic virus; Nicotiana tabacum; conditions: 1 μM, roots, 2 hr
Protocol: as §1
Nicotiana tabacum plants were used as a source of plant tissue in which TMV is spread systemically.
(a) Root application: N. tabacum plants were removed from their pots and transferred into 50 ml tubes containing 10 ml of 10 mM HEPES-KOH, pH 7.6, and the antiviral dinucleotides. Two hr later, plants were transferred into 50 ml tubes lacking the antiviral compound and were inoculated by TMV as described above. Twenty-four hr later leaves were homogenized in 0.01M sodium phosphate buffer, pH 7.6, (1 g leaves/3 ml buffer) and TMV content was determined by ELISA.
as §2, §3, §4, §5, §6
In order to establish the relationship of the induced resistance to the N-gene for viral localization and to the transmission ability of the compounds, a comparison between leaf application and root application of antiviral dinucleotides to N. tabacum plants was made. N. tabacum plants were removed into vials containing 10 ml of 10 mM HEPES-KOH, pH 7.6, and 1 μM of antiviral dinucleotide. The plant roots were allowed to remain in the solutions for 2 hr and then were transferred to vials containing the buffer without the antiviral compounds.
The plants then were infected with TMV as above. (See section 4. Antiviral activity on N. tabacum intact plants, paragraph [a].) Another group of N. tabacum plants was tested as described in the above-noted section, paragraph (b).

Nc1ncnc2c1ncn2[C@@H]1O[C@H](COP(=O)(O)OP(=O)(O)OP(=O)(O)OC[C@H]2O[C@@H](n3cnc4c(N)ncnc43)[C@H](O)[C@@H]2O)[C@@H](O)[C@H]1O [A5'ppp5'A, diadenosine 5',5"'-p^1,p3 -triphosphate]
percent protection as compared to control TMV infected leaves ([1]; 10 nM (10^-8 M), non-treated half-leaf): 80.3%
percent protection as compared to control TMV infected leaves ([1]; 10 nM (10^-8 M), treated half-leaf): 98.6%
percent protection as compared to control TMV infected leaves ([1]; 100 nM (10^-7 M), non-treated half-leaf): 100%
percent protection as compared to control TMV infected leaves ([1]; 100 nM (10^-7 M), treated half-leaf): 100%
induced resistance to TMV infection in the non-treated half-leaf ([1]; 1 μM (10^-6 M), in words): resulted in an induced resistance to TMV infection even in the non-treated half-leaf
percent protection as compared to control TMV infected leaves ([1]; 1000 nM (10^-6 M), non-treated half-leaf): 100%
percent protection as compared to control TMV infected leaves ([1]; 1000 nM (10^-6 M), treated half-leaf): 100%
TMV content ([2]; 100 nM, treatment with [Ca^+2] coprecipitation, control 75): 65 ngTMV/ml
TMV content ([2]; 100 nM, treatment without [Ca^+2] coprecipitation, control 56): N.I.
TMV content ([2]; 200 nM, treatment with [Ca^+2] coprecipitation, control 75): 38 ngTMV/ml
TMV content ([2]; 200 nM, treatment without [Ca^+2] coprecipitation, control 56): N.I.
inhibition at 0.1 µM ([2]; 100 nM, treatment with [Ca^+2] coprecipitation): 13%
inhibition at 0.1 µM ([2]; 100 nM, treatment without [Ca^+2] coprecipitation): 0%
inhibition at 0.2 µM ([2]; 200 nM, treatment with [Ca^+2] coprecipitation): 50%
inhibition at 0.2 µM ([2]; 200 nM, treatment without [Ca^+2] coprecipitation): 0%
% Protection [3]: 51%
ng TMV/g of leaves ([3]; control 200): 98 ng TMV/g of leaves
